The text below walks through data of US20250340565A1, “CD73 INHIBITOR COMPOUNDS” (AdoRx Therapeutics Limited, priority 2022, published 2025).

The target of assay [1] is human (h)CD73 (amino acids Trp27-Lys547) (Homo sapiens, UniProt P21589). Nature of the assay: CD73 inhibition assay (Malachite Green phosphate detection). Type of assay: biochemical. Conditions: 250 pM hCD73, 12.5 μM AMP, 20 min pre-incubation, absorbance 620 nm. On the procedure:
Compound inhibition of human (h)CD73 (amino acids Trp27-Lys547, R&D Systems 5795-EN-500) enzymatic activity was tested via the Malachite Green Phosphate Detection Kit (R&D DY996). Experiments were performed in 20 μL Tris buffer (25 mM Tris pH 7.5, 5 mM MgCl2, 0.002% Tween20), with 250 pM of hCD73. Test compounds of interest were prepared in a threefold serial dilution in DMSO and added to the assay to give the appropriate final concentration, with the assay DMSO concentration being 1%. Compounds were pre-incubated for 20 minutes with hCD73 in a 384 well clear plate (Greiner 781101), followed by the addition of adenosine monophosphate (AMP) to 12.5 μM. The enzymatic reaction was carried out for 20 min at room temperature. 5 μL of Malachite kit reagent A was added to stop the reaction (contains 3M H2SO4) and after 10 min, 5 μL of Malachite kit reagent B was added (Malachite Green). After 30 min, absorbance at 620 nm was read on a BMG Pherastar FSX.
Data were normalised to measurements in the absence of competing compound (0% inhibition) and in the presence of 10 μM control compound (100% inhibition).

The target of assay [2] is CD73 activity in U138-MG cells (Homo sapiens (Human), UniProt P21589). Nature of the assay: U138-MG inhibition assay (inorganic phosphate from AMP, PiColorLock Gold). It counts as cell-based. Conditions: 100 μM AMP, 30 min pre-incubation, 1 hour at 37° C. The method, then: U138-MG cells from ATCC are cultured in DMEM (Gibco 31966) with 10% FBS. Cells are seeded into 96-well culture plates (5,000 cell/well) in 100 μL of media for 24 hr. Cells are washed twice with 200 μL of assay buffer (20 mM HEPES, pH 7.4; 137 mM NaCl; 5.4 mM KCl; 1.3 mM CaCl2; 4.2 mM NaHCO3; 1 mg/mL glucose) to remove residual inorganic phosphate. CD73 inhibitor is added to each well in 100 μl volume and preincubated for 30 mins at 37° C. An equal volume of AMP substrate (Sigma A1572) is added to each well at a final concentration of 100 μM and incubated at 37° C. for 1 hour. Control wells containing cells but lacking added AMP, define the assay signal equivalent to 100% inhibition of CD73 activity. Supernatant is removed for measurement of inorganic phosphate using the PiColorLock Gold kit (Abcam, ab 270004).
The IC50 values of test compounds are determined as the inflection point of the sigmoidal concentration response curve.

The target in assay [3] is CD73 in whole blood (Homo sapiens (Human), UniProt P21589). Nature of the assay: Whole blood AMP Glo assay. It counts as cell-based. Conditions: whole blood of healthy volunteers, 10 μM AMP, 30 min pre-incubation, 15 min at 37° C., levamisole 1.5 mM. The method, then: Blood is drawn from healthy volunteers by venepuncture and anti-coagulated with Lithium Heparin (10 IU/mi). 150 μl of blood is added to U-bottom polypropylene 96-well assay plates pre-filled with 20 μl of compound dilutions prepared in RPMI also containing the Tissue Non-specific Alkaline Phosphatase inhibitor Levamisole (final assay concentration 1.5 mM). Control wells to define uninhibited CD73 contain DMSO in place of compound. Control wells to define complete stabilization of AMP attributable to CD73 contain LY3475070 (CAS: 2375815-63-5) at 30 μM final assay concentration.
Compounds are pre-incubated with whole blood at 37° C. for 30 minutes. Following this, AMP is added in a 30 μl volume for a final assay concentration of 10 μM, mixed, and the plates are incubated for 15 minutes at 37° C. Final DMSO concentration/well is 0.6% and final volume/well is 200 μL. After incubating with AMP, the plates are placed on ice and then centrifuged at 2000 g for 10 minutes at 4° C. Plasma is removed and then diluted 1:10 with pre-chilled HBSS (Ca2+& Mg2+free) and kept on ice.
The stabilized AMP concentration in diluted plasma is measured using AMP-Glo kit (Promega), in parallel with a standard curve of known AMP concentrations, with a final volume of 40 μl in white flat bottom half-well 96-well plates (Corning). Signal is measured by Luminescence. The IC50 values of test compounds are determined as the inflection point of the sigmoidal concentration response curve.

Structures can show the parent of a compound that is named as a salt.

What is called IC50 is the concentration that gives 50% inhibition. The low end stands for greater potency, the high end for weaker potency.

CD73 in whole blood, sequence (P21589 27-574): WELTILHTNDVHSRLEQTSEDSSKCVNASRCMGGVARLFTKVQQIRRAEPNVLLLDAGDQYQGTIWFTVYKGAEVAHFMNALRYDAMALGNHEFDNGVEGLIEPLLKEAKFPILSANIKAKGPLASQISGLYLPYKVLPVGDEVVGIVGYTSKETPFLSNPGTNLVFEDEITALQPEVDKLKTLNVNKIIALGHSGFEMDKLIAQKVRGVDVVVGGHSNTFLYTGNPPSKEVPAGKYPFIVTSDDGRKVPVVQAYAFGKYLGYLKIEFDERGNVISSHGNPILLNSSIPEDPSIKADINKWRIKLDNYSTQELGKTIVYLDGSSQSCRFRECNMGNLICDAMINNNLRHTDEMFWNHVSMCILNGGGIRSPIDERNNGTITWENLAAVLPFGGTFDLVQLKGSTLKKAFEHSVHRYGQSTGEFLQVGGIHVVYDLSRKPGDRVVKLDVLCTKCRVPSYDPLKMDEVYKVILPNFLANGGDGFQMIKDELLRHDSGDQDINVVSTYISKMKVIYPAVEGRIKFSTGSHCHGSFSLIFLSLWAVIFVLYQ
CD73 activity in U138-MG cells, sequence (P21589 27-574): as above

For the molecule `N#Cc1cnc2sc(-c3c[nH]c(=O)[nH]c3=O)cc2c1N1CCC(OCCN2CCCCC2)C1` (stereo not drawn) [Example 11, 2-(2,4-Dioxo-1H-pyrimidin-5-yl)-4-[3-[2-(1-piperidyl)ethoxy]pyrrolidin-1-yl]thieno[2,3-b]pyridine-5-carbonitrile], the figures for the concentration for half-maximal inhibition (IC50) in assay [1], in assay [2] and in assay [3] were 103 nM, 246 nM and 686 nM, respectively.
Take `O=c1[nH]cc(-n2cc3c(N4C[C@H]5CCC[C@H]5C4)ncnc3n2)c(=O)[nH]1` [Example 13.4, 5-[4-[(3aR,6aS)-3,3a,4,5,6,6a-Hexahydro-1H-cyclopenta[c]pyrrol-2-yl]pyrazolo[3,4-d]pyrimidin-2-yl]-1H-pyrimidine-2,4-dione]: the IC50 in assay [1] came out at 95 nM; in assay [2], 35.3 nM; in assay [3] it was 14.1 nM.
In the same order, the values of `O=c1[nH]cc(-c2cc3c(N4CC(OCCN5CCCCC5)C(F)(F)C4)ncnn3c2)c(=O)[nH]1` (stereo not drawn) [Example 17, 5-[4-[3,3-Difluoro-4-[2-(1-piperidyl)ethoxy]pyrrolidin-1-yl]pyrrolo[2,1-f][1,2,4]triazin-6-yl]-1H-pyrimidine-2,4-dione formate salt] are 59.4 nM, 108 nM and 119 nM.
Taken in the same sequence, the figures for `O=c1[nH]cc(-n2cc3c(N4CCC(OCCN5CCCCC5)C4)ncnc3n2)c(=O)[nH]1` (stereo not drawn) [Example 12, 5-[4-[3-[2-(1-Piperidyl)ethoxy]pyrrolidin-1-yl]pyrazolo[3,4-d]pyrimidin-2-yl]-1H-pyrimidine-2,4-dione hydrochloride] were 33.7 nM, 2.7 nM and 0.6 nM.
In the same order, the values of `O=c1[nH]cc(-n2cc3c(N4CC(F)(F)C5(CC5)C4)ncnc3n2)c(=O)[nH]1` [Example 13.1, 5-[4-(7,7-Difluoro-5-azaspiro[2.4]heptan-5-yl)pyrazolo[3,4-d]pyrimidin-2-yl]-1H-pyrimidine-2,4-dione] are 37.1 nM, 2.4 nM and 1.15 nM.
As to `O=c1[nH]cc(-c2nc3ncnc(N4CCC(OCCN5CCCCC5)C4)c3s2)c(=O)[nH]1` (stereo not drawn) [Example 6, 5-[7-[3-[2-(1-Piperidyl)ethoxy]pyrrolidin-1-yl]thiazolo[4,5-d]pyrimidin-2-yl]-1H-pyrimidine-2,4-dione], the values for the IC50 in assay [1], in assay [2] and in assay [3] were 57.3 nM, 18.7 nM and 27.5 nM, respectively.
With `O=c1[nH]cc(-n2cc3c(N4CC(F)(F)C(F)(F)C4)ncnc3n2)c(=O)[nH]1` [Example 13.8, 5-[4-(3,3,4,4-Tetrafluoropyrrolidin-1-yl)pyrazolo[3,4-d]pyrimidin-2-yl]-1H-pyrimidine-2,4-dione], the results for the 50% inhibitory concentration (IC50) in assay [1], in assay [2] and in assay [3] were 47.6 nM, 12.1 nM and 1.5 nM, respectively.
In the same order, the values of `N#Cc1ccc(OC2CCN(c3ncnc4nn(-c5c[nH]c(=O)[nH]c5=O)cc34)C2)nc1` (stereo not drawn) [Example 24, 6-[1-[2-(2,4-Dioxo-1H-pyrimidin-5-yl)pyrazolo[3,4-d]pyrimidin-4-yl]pyrrolidine-3-yl]oxypyridine-3-carbonitrile] are 35.5 nM, 11.8 nM and 1.4 nM.
In the same order, the values of `CC1(C)CN(c2ncnc3oc(-c4c[nH]c(=O)[nH]c4=O)cc23)CC1(F)F` [Example 7.1, 5-[4-(3,3-Difluoro-4,4-dimethyl-pyrrolidin-1-yl)furo[2,3-d]pyrimidin-6-yl]-1H-pyrimidine-2,4-dione] are 25.4 nM, 22.8 nM and 444 nM.
Regarding `O=c1[nH]cc(-c2cc3c(N4CC(F)(F)C5(CCC5)C4)nccn3n2)c(=O)[nH]1` [Example 25.1, 5-[4-(8,8-Difluoro-6-azaspiro[3.4]octan-6-yl)pyrazolo[1,5-a]pyrazin-2-yl]-1H-pyrimidine-2,4-dione], the IC50 in assay [1] amounted to 42.3 nM; in assay [2], 38.3 nM; in assay [3], 645 nM.
For `COC1CN(c2ncnc3nn(-c4c[nH]c(=O)[nH]c4=O)cc23)CC1(F)F` (stereo not drawn) [Example 13.11, 5-[4-(3,3-Difluoro-4-methoxy-pyrrolidin-1-yl)pyrazolo[3,4-d]pyrimidin-2-yl]-1H-pyrimidine-2,4-dione], the results for the IC50 in assay [1], in assay [2] and in assay [3] were 49.2 nM, 3.2 nM and 1.5 nM, respectively.
Consider `CC1(C)CN(c2ncc(Cl)n3nc(-c4c[nH]c(=O)[nH]c4=O)cc23)CC1(F)F` [Example 25.8, 5-[7-chloro-4-(3,3-difluoro-4,4-dimethyl-pyrrolidin-1-yl)pyrazolo[1,5-a]pyrazin-2-yl]-1H-pyrimidine-2,4-dione], for which the figures for the IC50 in assay [1], in assay [2] and in assay [3] were 16 nM, 2.8 nM and 38 nM, respectively.
Taken in the same sequence, the figures for `CC1(C)CN(c2ncc(C(F)(F)F)n3nc(-c4c[nH]c(=O)[nH]c4=O)cc23)CC1(F)F` [Example 25.9, 5-[4-(3,3-difluoro-4,4-dimethyl-pyrrolidin-1-yl)-7-(trifluoromethyl)pyrazolo[1,5-a]pyrazin-2-yl]-1H-pyrimidine-2,4-dione] were 58 nM, 22 nM and 18000 nM.
Taken in the same sequence, the figures for `CC1(C)CN(c2ncnn3cc(-c4c[nH]c(=O)[nH]c4=O)cc23)CC1(F)F` [Example 10.2, 5-[4-(3,3-Difluoro-4,4-dimethyl-pyrrolidin-1-yl)pyrrolo[2,1-f][1,2,4]triazin-6-yl]-1H-pyrimidine-2,4-dione] were 130 nM, 312 nM and 1590 nM.
Taken in the same sequence, the figures for `CCC1(CC)CCN(c2ncnc3nn(-c4c[nH]c(=O)[nH]c4=O)cc23)C1` [Example 13.7, 5-[4-(3,3-Diethylpyrrolidin-1-yl)pyrazolo[3,4-d]pyrimidin-2-yl]-1H-pyrimidine-2,4-dione] were 73.9 nM, 20.9 nM and 7.58 nM.
Regarding `O=c1[nH]cc(-n2cc3c(N4CC(F)(F)C5(CCCC5)C4)ncnc3n2)c(=O)[nH]1` [Example 13.3, 5-[4-(4,4-Difluoro-2-azaspiro[4.4]nonan-2-yl)pyrazolo[3,4-d]pyrimidin-2-yl]-1H-pyrimidine-2,4-dione], the IC50 in assay [1] is 124 nM; in assay [2] it was 4.5 nM; in assay [3] it was 3.52 nM.
Consider `O=c1[nH]cc(-c2cc3c(N4CC(F)(F)C5(CCCC5)C4)ncnc3o2)c(=O)[nH]1` [Example 19.1, 5-[4-(4,4-Difluoro-2-azaspiro[4.4]nonan-2-yl)furo[2,3-d]pyrimidin-6-yl]-1H-pyrimidine-2,4-dione], for which the IC50 in assay [1] came to 96.2 nM; in assay [2], 104 nM; in assay [3], 1990 nM.
Take `CC1(C)CN(c2ncnc3nn(-c4c[nH]c(=O)[nH]c4=O)cc23)CC1(F)F` [Example 13, 5-[4-(3,3-Difluoro-4,4-dimethyl-pyrrolidin-1-yl)pyrazolo[3,4-d]pyrimidin-2-yl]-1H-pyrimidine-2,4-dione]: the IC50 in assay [1] was 44.8 nM; in assay [2] it was 1.8 nM; in assay [3], 0.47 nM.
As to `O=c1[nH]cc(-n2cc3c(N4C[C@H]5COC[C@H]5C4)ncnc3n2)c(=O)[nH]1` [Example 13.9, 5-[4-[(3aR,6aS)-1,3,3a,4,6,6a-Hexahydrofuro[3,4-c]pyrrol-5-yl]pyrazolo[3,4-d]pyrimidin-2-yl]-1H-pyrimidine-2,4-dione], the values for the IC50 in assay [1], in assay [2] and in assay [3] were 303 nM, 49.2 nM and 5.5 nM, respectively.
